The values that follow come from US20260028365A1 (BIOGEN MA INC., priority 2022, published 2026).

Where a name gives a salt, the structure may show the parent alone. Read-outs that look alike come from different tables or passages of the source. Bounds are passed on as bounds.

The target in assay [1] is JH2 domain of human Tyk2 (Homo sapiens (Human), UniProt P29597). The assay is described as follows: JH2 Biochemical Assay (TR-FRET probe displacement). Type of assay: binding.
In assay [2] the target is Tyk2 (Homo sapiens (Human), UniProt P29597). The assay is described as follows: pSTAT4 Cell Assay (MSD, NK92 cells). Type of assay: cell-based.
Chain of Tyk2 (P29597 whole entry, the tested form may be a part): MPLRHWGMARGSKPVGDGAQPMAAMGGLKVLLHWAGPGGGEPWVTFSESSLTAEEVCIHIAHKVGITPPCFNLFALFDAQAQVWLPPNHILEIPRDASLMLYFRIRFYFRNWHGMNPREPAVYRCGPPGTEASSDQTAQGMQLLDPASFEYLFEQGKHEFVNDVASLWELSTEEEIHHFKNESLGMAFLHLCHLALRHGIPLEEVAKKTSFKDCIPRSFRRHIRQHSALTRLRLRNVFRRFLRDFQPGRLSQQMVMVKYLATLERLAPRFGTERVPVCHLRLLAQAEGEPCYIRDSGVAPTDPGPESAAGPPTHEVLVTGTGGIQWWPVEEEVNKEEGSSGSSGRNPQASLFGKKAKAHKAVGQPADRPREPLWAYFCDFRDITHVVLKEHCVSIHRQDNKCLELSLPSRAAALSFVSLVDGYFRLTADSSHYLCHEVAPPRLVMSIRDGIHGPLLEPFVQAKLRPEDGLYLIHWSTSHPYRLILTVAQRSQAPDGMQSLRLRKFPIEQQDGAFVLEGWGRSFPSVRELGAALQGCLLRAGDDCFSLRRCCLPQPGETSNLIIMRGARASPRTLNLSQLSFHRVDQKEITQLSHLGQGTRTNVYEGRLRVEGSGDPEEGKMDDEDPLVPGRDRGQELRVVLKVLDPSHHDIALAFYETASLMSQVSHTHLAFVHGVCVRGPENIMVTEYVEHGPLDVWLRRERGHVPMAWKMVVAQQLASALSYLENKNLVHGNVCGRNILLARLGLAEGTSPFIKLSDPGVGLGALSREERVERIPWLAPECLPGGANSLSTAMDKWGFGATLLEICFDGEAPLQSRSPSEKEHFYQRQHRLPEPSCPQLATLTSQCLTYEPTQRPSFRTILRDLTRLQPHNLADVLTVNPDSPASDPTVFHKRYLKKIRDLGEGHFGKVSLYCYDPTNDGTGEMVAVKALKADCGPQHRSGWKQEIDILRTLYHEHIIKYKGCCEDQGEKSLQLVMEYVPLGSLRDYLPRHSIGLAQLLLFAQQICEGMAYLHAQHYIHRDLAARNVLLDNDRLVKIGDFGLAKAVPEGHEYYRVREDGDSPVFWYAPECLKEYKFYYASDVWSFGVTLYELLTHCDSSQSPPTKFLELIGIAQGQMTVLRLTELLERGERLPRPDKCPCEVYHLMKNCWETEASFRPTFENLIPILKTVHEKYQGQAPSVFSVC
Setting [3] is: JH2 domain of human Tyk2, TR-FRET probe displacement.
The mark [4] stands for this setting: TR-FRET probe displacement, JH2 domain of human Tyk2.
[5] abbreviates: TR-FRET probe displacement, JH2 domain.

Chain of JH2 domain of human Tyk2 (P29597 575-876): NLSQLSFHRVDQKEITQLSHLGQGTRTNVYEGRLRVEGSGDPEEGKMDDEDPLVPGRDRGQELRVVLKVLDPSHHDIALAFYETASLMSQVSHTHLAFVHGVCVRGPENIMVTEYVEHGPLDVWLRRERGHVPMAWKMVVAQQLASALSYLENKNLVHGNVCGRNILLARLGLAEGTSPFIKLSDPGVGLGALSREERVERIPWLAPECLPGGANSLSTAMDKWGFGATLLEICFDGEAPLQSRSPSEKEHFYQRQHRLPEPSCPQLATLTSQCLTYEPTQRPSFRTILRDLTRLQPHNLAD

Regarding `CC(=O)Nc1cc(Nc2cc(C)nc(C34COC(C3)C4)n2)c(-c2ccc(C(C)F)cn2)cn1` (centres unmarked) [Example 577, N-(4′-((2-(2-oxabicyclo[2.1.1]hexan-4-yl)-6-methylpyrimidin-4-yl)amino)-5-(1-fluoroethyl)-[2,3′-bipyridin]-6′-yl)acetamide], the IC50 in assay [1] (setting [3]) and in assay [2] (MSD) was not above 10 nM in each case.

Turning to `CC(=O)Nc1cc(Nc2cc(C)nc(C(C)(F)F)n2)c(OCC2(C(F)(F)F)CC2)cn1` [Example 57, N-(4-((2-(1,1-difluoroethyl)-6-methylpyrimidin-4-yl)amino)-5-((1-(trifluoromethyl)cyclopropyl)methoxy)pyridin-2-yl)acetamide], the results for the IC50 in assay [1] (setting [4]) and in assay [2] (MSD) were not above 10 nM and 10 to 100 nM, respectively.

`CC(=O)Nc1cc(Nc2cc(C)nc(C(C)(F)F)n2)c(-c2cn3c(n2)CN(C)CC3)cn1` [Example 239, N-(4-((2-(1,1-difluoroethyl)-6-methylpyrimidin-4-yl)amino)-5-(7-methyl-5,6,7,8-tetrahydroimidazo[1,2-a]pyrazin-2-yl)pyridin-2-yl)acetamide]: the IC50 in assay [1] (setting [4]) and in assay [2] (MSD) was not above 10 nM throughout.

`CCc1cc(Nc2cc(NC(C)=O)ncc2OCCOC(F)F)nc(C(C)(F)F)n1` [Example 68, N-(4-((2-(1,1-difluoroethyl)-6-ethylpyrimidin-4-yl)amino)-5-(2-(difluoromethoxy)ethoxy)pyridin-2-yl)acetamide]: the IC50 in assay [1] (setting [4]) and in assay [2] (MSD) was not above 10 nM throughout.

Regarding `CCc1cc(Nc2cc(NC(C)=O)ncc2-c2nc(C)no2)nc(C(C)(F)F)n1` [Example 281, N-(4-((2-(1,1-difluoroethyl)-6-ethylpyrimidin-4-yl)amino)-5-(3-methyl-1,2,4-oxadiazol-5-yl)pyridin-2-yl)acetamide], the values for the IC50 in assay [1] (setting [4]) and in assay [2] (MSD) were not above 10 nM and 10 to 100 nM, respectively.

`COc1cc(Nc2cc(NC(C)=O)ncc2-c2ncc(F)cn2)nc(C(C)(F)F)n1` [Example 192, N-(4-((2-(1,1-difluoroethyl)-6-methoxypyrimidin-4-yl)amino)-5-(5-fluoropyrimidin-2-yl)pyridin-2-yl)acetamide]: the IC50 is not above 10 nM in assay [1] (setting [4]) and 10 to 100 nM in assay [2] (MSD).

On to `CC(=O)Nc1cc(Nc2ccnc(C(C)(C)F)c2)c(-c2ncc(F)cn2)cn1` [Example 216, N-(4-((2-(2-fluoropropan-2-yl)pyridin-4-yl)amino)-5-(5-fluoropyrimidin-2-yl)pyridin-2-yl)acetamide], for which the IC50 in assay [1] (setting [4]) was in the range of 10 to 100 nM; in assay [2] (MSD), 100 to 1000 nM.

With `CC(=O)Nc1cc(Nc2cc(C)nc(C(C)(F)F)n2)c(OCc2cnn(C)c2)cn1` [Example 508, N-(4-((2-(1,1-difluoroethyl)-6-methylpyrimidin-4-yl)amino)-5-((1-methyl-1H-pyrazol-4-yl)methoxy)pyridin-2-yl)acetamide], the IC50 was not above 10 nM in assay [1] (setting [3]) and 10 to 100 nM in assay [2] (MSD).

`CC(=O)Nc1cc(Nc2cc(C)nc(C(C)(F)F)n2)c(-c2cnc(CN(C)C)cn2)cn1` [Example 807, N-(4-((2-(1,1-difluoroethyl)-6-methylpyrimidin-4-yl)amino)-5-(5-((dimethylamino)methyl)pyrazin-2-yl)pyridin-2-yl)acetamide]: the IC50 in assay [1] (setting [5]) and in assay [2] was not above 10 nM throughout.

Take `CC(=O)Nc1cc(Nc2cc(C)nc(C34COC(C3)C4)n2)c(-c2cc(C(F)F)ccn2)cn1` [Example 576, N-(4′-((2-(2-oxabicyclo[2.1.1]hexan-4-yl)-6-methylpyrimidin-4-yl)amino)-4-(difluoromethyl)-[2,3′-bipyridin]-6′-yl)acetamide]: the IC50 in assay [1] (setting [3]) was not above 10 nM; in assay [2] (MSD), 100 to 1000 nM.

In the case of `CC(=O)Nc1cc(Nc2cc(C)nc(C(C)(F)F)n2)c(OCc2cnc(C3CC3)o2)cn1` [Example 344, N-(5-((2-cyclopropyloxazol-5-yl)methoxy)-4-((2-(1,1-difluoroethyl)-6-methylpyrimidin-4-yl)amino)pyridin-2-yl)acetamide], the figures for the IC50 in assay [1] (setting [4]) and in assay [2] (MSD) were not above 10 nM and 10 to 100 nM, respectively.

As to `CC(=O)Nc1cc(Nc2cc(C)nc(C(C)(F)F)n2)c(OCC2CC23CCOC3)cn1` (centres unmarked) [Example 432, N-(5-((5-oxaspiro[2.4]heptan-1-yl)methoxy)-4-((2-(1,1-difluoroethyl)-6-methylpyrimidin-4-yl)amino)pyridin-2-yl)acetamide], the IC50 is not above 10 nM in assay [1] (setting [3]) and 10 to 100 nM in assay [2] (MSD).

Consider `CC(=O)Nc1cc(Nc2cc(C)nc(C(C)(F)F)n2)c(OC[C@@H]2CCC(=O)N2)cn1` [Example 500, (S)-N-(4-((2-(1,1-difluoroethyl)-6-methylpyrimidin-4-yl)amino)-5-((5-oxopyrrolidin-2-yl)methoxy)pyridin-2-yl)acetamide], for which the values for the IC50 in assay [1] (setting [3]) and in assay [2] (MSD) were not above 10 nM and 100 to 1000 nM, respectively.

Regarding `CC(=O)Nc1cc(Nc2cc(C)nc(C(C)(F)F)n2)c(OCCC2CCCN2C)cn1` (centres unmarked) [Example 501, N-(4-((2-(1,1-difluoroethyl)-6-methylpyrimidin-4-yl)amino)-5-(2-(1-methylpyrrolidin-2-yl)ethoxy)pyridin-2-yl)acetamide], the IC50 in assay [1] (setting [3]) was not above 10 nM; in assay [2] (MSD), 100 to 1000 nM.

In the case of `COc1nc(-c2cnc(NC(C)=O)cc2Nc2cc(C)nc(C(C)(F)F)n2)cs1` [Example 617, N-(4-((2-(1,1-difluoroethyl)-6-methylpyrimidin-4-yl)amino)-5-(2-methoxythiazol-4-yl)pyridin-2-yl)acetamide], the IC50 in assay [1] (setting [3]) and in assay [2] (MSD) was not above 10 nM throughout.

For `CC(=O)Nc1cc(Nc2cc(C)nc(C(C)(F)F)n2)c(OCC2(F)COC2)cn1` [Example 483, N-(4-((2-(1,1-difluoroethyl)-6-methylpyrimidin-4-yl)amino)-5-((3-fluorooxetan-3-yl)methoxy)pyridin-2-yl)acetamide], the IC50 in assay [1] (setting [3]) was not above 10 nM; in assay [2] (MSD), 10 to 100 nM.

Regarding `CCOc1cnc(NC(C)=O)cc1Nc1cc(-c2ccc(OC)nc2)nc(C(C)(F)F)n1` [Example 369, N-(4-((2-(1,1-difluoroethyl)-6-(6-methoxypyridin-3-yl)pyrimidin-4-yl)amino)-5-ethoxypyridin-2-yl)acetamide], the IC50 in assay [1] (setting [4]) is not above 10 nM; in assay [2] (MSD), 10 to 100 nM.

In the case of `CC(=O)Nc1cc(Nc2cc(C)nc(C(C)(F)F)n2)c(OCc2ccsn2)cn1` [Example 323, N-(4-((2-(1,1-difluoroethyl)-6-methylpyrimidin-4-yl)amino)-5-(isothiazol-3-ylmethoxy)pyridin-2-yl)acetamide], the IC50 in assay [1] (setting [4]) and in assay [2] (MSD) was not above 10 nM throughout.

For the compound `CC(=O)Nc1cc(Nc2cc(OC3CC3)nc(C(C)(F)F)n2)c(OCc2ccccn2)cn1` [Example 348, N-(4-((6-cyclopropoxy-2-(1,1-difluoroethyl)pyrimidin-4-yl)amino)-5-(pyridin-2-ylmethoxy)pyridin-2-yl)acetamide], the IC50 in assay [1] (setting [4]) is not above 10 nM; in assay [2] (MSD), 10 to 100 nM.

In the case of `CC(=O)Nc1cc(Nc2cc(C)nc(C(C)(C)F)n2)c(-c2ccnc(C)n2)cn1` [Example 176, N-(4-((2-(2-fluoropropan-2-yl)-6-methylpyrimidin-4-yl)amino)-5-(2-methylpyrimidin-4-yl)pyridin-2-yl)acetamide], the IC50 in assay [1] (setting [4]) and in assay [2] (MSD) was not above 10 nM in each case.

For the compound `CCc1cc(Nc2cc(NC(C)=O)ncc2-c2ccc(=O)[nH]n2)nc(C(C)(F)F)n1` [Example 221, N-(4-((2-(1,1-difluoroethyl)-6-ethylpyrimidin-4-yl)amino)-5-(6-oxo-1,6-dihydropyridazin-3-yl)pyridin-2-yl)acetamide], the values for the IC50 in assay [1] (setting [4]) and in assay [2] (MSD) were 10 to 100 nM and not below 1000 nM, respectively.

Turning to `CC(=O)Nc1cc(Nc2ccnc(C(C)(F)F)n2)c(-c2cnc(C#N)cn2)cn1` [Example 850, N-(5-(5-cyanopyrazin-2-yl)-4-((2-(1,1-difluoroethyl)pyrimidin-4-yl)amino)pyridin-2-yl)acetamide], the figures for the IC50 in assay [1] (setting [5]) and in assay [2] were not above 10 nM and 100 to 1000 nM, respectively.

For the compound `COCCOc1cc(Nc2cc(NC(C)=O)ncc2-c2ccncn2)nc(C(C)(F)F)n1` [Example 585, N-(4-((2-(1,1-difluoroethyl)-6-(2-methoxyethoxy)pyrimidin-4-yl)amino)-5-(pyrimidin-4-yl)pyridin-2-yl)acetamide], the IC50 in assay [1] (setting [3]) and in assay [2] (MSD) was not above 10 nM throughout.

For `CC(=O)Nc1cc(Nc2cc(-c3cnn(C(C)C)c3)nc(C(C)(F)F)n2)c(O[C@H]2C[C@@H](F)C2)cn1` [Example 414, N-(4-((2-(1,1-difluoroethyl)-6-(1-isopropyl-1H-pyrazol-4-yl)pyrimidin-4-yl)amino)-5-((1s,3s)-3-fluorocyclobutoxy)pyridin-2-yl)acetamide], the IC50 in assay [1] (setting [3]) and in assay [2] (MSD) was not above 10 nM throughout.

As for `CC(=O)Nc1cc(Nc2cc(C)nc(C(C)(F)F)n2)c(OCC(F)F)cn1` [Example 24, N-(5-(2,2-difluoroethoxy)-4-((2-(1,1-difluoroethyl)-6-methylpyrimidin-4-yl)amino)pyridin-2-yl)acetamide], the IC50 in assay [1] (setting [4]) was not above 10 nM; in assay [2] (MSD), 10 to 100 nM.

As to `CCOc1cnc(NC(C)=O)cc1Nc1cc(OC2CC(F)C2)nc(C(C)(F)F)n1` (centres unmarked) [Example 457, N-(4-((2-(1,1-difluoroethyl)-6-(3-fluorocyclobutoxy)pyrimidin-4-yl)amino)-5-ethoxypyridin-2-yl)acetamide trifluoroacetate], the IC50 in assay [1] (setting [3]) is not above 10 nM; in assay [2] (MSD), 10 to 100 nM.

Consider `CC(=O)Nc1cc(Nc2cncc(C(C)(C)F)c2)c(-c2ccc(C(C)(C)O)cn2)cn1` [Example 722, N-(4′-((5-(2-fluoropropan-2-yl)pyridin-3-yl)amino)-5-(2-hydroxypropan-2-yl)-[2,3′-bipyridin]-6′-yl)acetamide], for which the IC50 in assay [1] (setting [3]) and in assay [2] (MSD) was not above 10 nM in each case.

As to `CC(=O)Nc1cc(Nc2ccnc(C(C)(F)F)n2)c(-c2cncc(OC3COC3)n2)cn1` [Example 690, N-(4-((2-(1,1-difluoroethyl)pyrimidin-4-yl)amino)-5-(6-(oxetan-3-yloxy)pyrazin-2-yl)pyridin-2-yl)acetamide], the IC50 in assay [1] (setting [3]) and in assay [2] (MSD) was 10 to 100 nM in each case.

By IC50 is commonly meant the midpoint of a concentration-inhibition curve. Read a high IC50 as weaker potency in that assay.
